Columns and labels:
[1] = Control study: chemical stability in PBS/triethanolamine without DPP-IV; assay type: physicochemical; conditions: PBS/triethanolamine solution without DPP-IV, PBS/TEthA, pH 7.5, 37°, no DPP-IV, read-out: percentage of peptide remaining
Experimental: In the control study, peptides were incubated with PBS/triethanolamine solution in the absence of DPP-IV to measure their chemical stability.

[2] = system: beta TC-6 cell line; experiment: Insulin release assay (insulin ELISA); assay type: cell-based, mouse; conditions: for Insulin release: 5 mM glucose, 30 minutes, Beta-TC-6 cells, cells only 1.37-3.67
Experimental: This was derived from a pancreatic tumor (insulinoma) arising in a transgenic mouse.
Beta-TC-6 cells were purchased from A.T.C.C. (A.T.C.C. number CCL-11506; Manassas, Va., U.S.A.). Beta-TC-6 cells were cultured in Dulbecco's Modified Eagle's medium supplemented with 15% (v/v) heat-inactivated foetal bovine serum, 1% (v/v) glutamine, 0.45% (w/v) glucose and 0.15% (w/v) sodium bicarbonate at 37° C. in a humidified 5% CO2 atmosphere. Beta-TC-6 cells form islands and the monolayer never becomes confluent; cells were passaged at 70% confluence (7 days from seeding) at a subcultivation ratio of 1:4. The monolayer was disrupted from the surface of the culture flask with 0.25% (w/v) Trypsin-0.53 mM EDTA.
Beta-TC-6 cells were cultured in 12 well plates for between 4-8 days prior to use. Cells were cultured in Krebs-Ringer (10 mM Hepes, pH 7.4, 136 mM NaCl, 4.7 mM KCl and 1.25 mM MgSO4) supplemented with 5 mM glucose for 1 hr at 37° C. in a humidified 5% CO2 atmosphere. This medium was removed, cells washed with Krebs-Ringer. Beta-TC-6 cells were then cultured in 1 ml per well of Krebs-Ringer supplemented with 5 mM glucose and 0, 0.12, 0.6, 3 and 15 μM of peptide in duplicate for 30 minutes at 37° C. in a humidified 5% CO2 atmosphere. Medium was removed, diluted 1:5, and insulin concentration determined using an insulin ELISA kit (Mercodia, Uppsala, Sweden) according to the manufacturer's protocol. Beta-TC-6 cells were washed three times with ice-cold PBS and extracted into 0.5 ml lysis buffer (62.5 mM Tris, pH 7.5, and 1%, v/v, SDS) per well. Protein concentration was determined by Lowry assay. […] Only single-sided p values are shown.

[3] = system: DPP-IV; experiment: Dipeptidyl Peptidase IV (DPP-IV) digestion, stability by RP-HPLC (Example 10); assay type: in vitro ADME; conditions: DPP-IV (isolated peptidase); pH 7.5, 37° C., DPP-IV, 22 hr; new species at 3220 mu, loss of the His-Ala dimer; read-out: share hydrolyzed by DPP-IV within 22 hr
Description: (§1) Their stabilities were monitored by RP-HPLC, noting the disappearance of the intact sequence and appearance of a species missing the N terminal dipeptide or similar fragment.

[4] = molecular target: DPP-IV (Homo sapiens, UniProt P27487); experiment: as above; assay type: in vitro ADME
Sequence of DPP-IV (Homo sapiens, UniProt P27487) (P27487 whole entry, species assumed): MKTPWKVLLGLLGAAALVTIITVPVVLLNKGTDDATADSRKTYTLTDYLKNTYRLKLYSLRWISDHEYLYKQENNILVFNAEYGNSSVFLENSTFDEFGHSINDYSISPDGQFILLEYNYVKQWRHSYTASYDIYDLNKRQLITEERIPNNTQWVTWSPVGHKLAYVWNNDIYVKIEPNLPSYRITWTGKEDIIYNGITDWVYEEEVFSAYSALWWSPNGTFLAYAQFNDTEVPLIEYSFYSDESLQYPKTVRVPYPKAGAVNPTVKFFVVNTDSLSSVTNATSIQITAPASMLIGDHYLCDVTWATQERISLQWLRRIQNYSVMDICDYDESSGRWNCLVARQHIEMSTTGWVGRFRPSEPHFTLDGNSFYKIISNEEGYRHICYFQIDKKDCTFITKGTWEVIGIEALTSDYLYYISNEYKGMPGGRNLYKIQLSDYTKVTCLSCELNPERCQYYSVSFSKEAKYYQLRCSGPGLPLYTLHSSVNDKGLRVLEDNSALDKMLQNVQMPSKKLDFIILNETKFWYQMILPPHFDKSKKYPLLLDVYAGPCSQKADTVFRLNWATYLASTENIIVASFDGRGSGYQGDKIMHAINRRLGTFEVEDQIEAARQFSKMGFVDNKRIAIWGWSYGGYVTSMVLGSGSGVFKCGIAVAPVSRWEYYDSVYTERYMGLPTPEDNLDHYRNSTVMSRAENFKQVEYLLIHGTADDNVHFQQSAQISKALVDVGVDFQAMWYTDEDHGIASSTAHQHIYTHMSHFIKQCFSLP
Description: as §1

CC[C@H](C)[C@H](NC(=O)[C@H](Cc1ccccc1)NC(=O)[C@H](CCC(=O)O)NC(=O)[C@H](CCCCN)NC(=O)[C@H](C)NC(=O)[C@H](C)NC(=O)[C@H](CCC(N)=O)NC(=O)CNC(=O)[C@H](CCC(=O)O)NC(=O)[C@H](CC(C)C)NC(=O)[C@H](Cc1ccc(O)cc1)NC(=O)[C@H](CO)NC(=O)[C@H](CO)NC(=O)[C@@H](NC(=O)[C@H](CC(=O)O)NC(=O)[C@H](CO)NC(=O)[C@@H](NC(=O)[C@H](Cc1ccccc1)NC(=O)[C@@H](NC(=O)CNC(=O)[C@H](CCC(=O)O)NC(=O)CNNC(=O)[C@H](C)NC(=O)[C@@H](N)Cc1c[nH]cn1)[C@@H](C)O)[C@@H](C)O)C(C)C)C(=O)N[C@@H](C)C(=O)N[C@@H](Cc1c[nH]c2ccccc12)C(=O)N[C@@H](CC(C)C)C(=O)N[C@H](C(=O)N[C@@H](CCCCN)C(=O)NCC(=O)N[C@@H](CCCNC(=N)N)C(=O)NCC(=O)O)C(C)C [SP007, L-His-L-Ala-NH—NH—CH2—C(O)-Glu9-37]
remaining at 22 h ([1]; 22 hr): 95% | remaining at 47 h ([1]; 47 hr): 95% | Insulin release ([2]; 3 μM peptide): 4.51 ng/min/mg | Activity of 3 μM of each peptide as percentage of insulin release by cells only ([2]; 3 μM peptide, cells alone=100%): 113 ± 65% | Insulin release ([2]; 15 μM peptide): 8.08 ng/min/mg | Activity of 15 μM of each peptide as percentage of insulin release by cells only ([2]; 15 μM peptide, cells alone=100%): 235 ± 91% | metabolised at 22 h [3]: > 90% | remaining at 22 h ([4]; DPP-IV (isolated peptidase), PBS/TEthA, pH 7.5, 37°, DPP-IV, 22 hr, read-out: percentage of analogue remaining): < 5% | remaining at 47 h ([4]; DPP-IV (isolated peptidase), PBS/TEthA, pH 7.5, 37°, DPP-IV, 47 hr, read-out: percentage of analogue remaining): < 5% | susceptibility to DPP-IV hydrolysis ([4]; pH 7.5, 37° C., up to 47 hr): susceptible to DPP-IV hydrolysis
